US11319315B2, “Cyclohexyl acid triazole azoles as LPA antagonists” (BRISTOL-MYERS SQUIBB COMPANY, priority 2017, dated 2022)
pIC50: −log10 of the molar value. Counter-ions that a name gives are not always drawn.

What follows are molecules tested against T1, human LPA1 (Homo sapiens, UniProt Q92633) (assay: LPA1 functional antagonist assay (LPA-induced calcium flux in CHO cells overexpressing human LPA1)). Details: inhibition of calcium flux induced by 10 nM LPA, CHO cells overexpressing human LPA1; read-out: hLPA1 IC50.
T1 construct: expressed in transfected cells; host or cells: Chinese hamster ovary (CHO) cells
Assay type: cell-based
In short: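 Calcium flux was triggered by 10 nM LPA after 20 min room-temperature compound pre-incubation (final 0.08 nM to 5 μM, 0.5% DMSO) in human LPA1-overexpressing CHO cells carrying calcium dye. Buffer: HBSS with Ca/Mg, 20 mM HEPES, 0.1% fatty-acid-free BSA; IC50s from 4-parameter logistic fits.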

T1 sequence (Q92633 whole entry): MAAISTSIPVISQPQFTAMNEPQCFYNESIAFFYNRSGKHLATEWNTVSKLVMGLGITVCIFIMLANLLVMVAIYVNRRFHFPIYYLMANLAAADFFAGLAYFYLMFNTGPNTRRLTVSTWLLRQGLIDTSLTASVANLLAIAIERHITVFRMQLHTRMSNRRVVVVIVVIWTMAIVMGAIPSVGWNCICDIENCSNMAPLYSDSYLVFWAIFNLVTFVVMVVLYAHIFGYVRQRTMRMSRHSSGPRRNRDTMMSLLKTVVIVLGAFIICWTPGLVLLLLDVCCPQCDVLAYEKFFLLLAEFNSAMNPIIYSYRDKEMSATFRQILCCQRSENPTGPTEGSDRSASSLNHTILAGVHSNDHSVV

| pIC50 | Structure (SMILES) |
| --- | --- |
| 6.94 | Cc1nc(-c2nnn(C)c2Cn2nncc2CC(C)C)ccc1O[C@H]1CCC[C@H](C(=O)O)C1 [Example 261, (1S,3S)-3-((6-(5-((5-isobutyl-1H-1,2,3-triazol-1-yl)methyl)-1-methyl-1H-1,2,3-triazol-4-yl)-2-methyl-pyridin-3-yl)oxy)cyclohexane-1-carboxylic acid] |
| 7.07 | Cc1nc(-c2nnn(C)c2Cn2cc(CC(C)C)nn2)ccc1O[C@H]1CCC[C@H](C(=O)O)C1 [Example 262, (1S,3S)-3-((6-(5-((4-isobutyl-1H-1,2,3-triazol-1-yl)methyl)-1-methyl-1H-1,2,3-triazol-4-yl)-2-methylpyridin-3-yl)oxy)cyclohexane-1-carboxylic acid] |
| 7.39 | Cc1nc(-c2nnn(C)c2Cn2nncc2CC2CC2)ccc1O[C@H]1CCC[C@H](C(=O)O)C1 [Example 263, (1S,3S)-3-((6-(5-((5-(cyclopropyl-methyl)-1H-1,2,3-triazol-1-yl)-methyl)-1-methyl-1H-1,2,3-triazol-4-yl)-2-methylpyridin-3-yl)oxy)-cyclohexane-1-carboxylic acid] |
| 7.85 | Cc1nc(-c2nnn(C)c2Cn2ncc(CC3CC3)n2)ccc1O[C@H]1CCC[C@H](C(=O)O)C1 [Example 264, (1S,3S)-3-((6-(5-((4-(cyclopropyl-methyl)-2H-1,2,3-triazol-2-yl)methyl)-1-methyl-1H-1,2,3-triazol-4-yl)-2-methylpyridin-3-yl)oxy)cyclohexane-1-carboxylic acid] |
| 7.40 | Cc1nc(-c2nnn(C)c2Cn2cc(CC3CC3)nn2)ccc1O[C@H]1CCC[C@H](C(=O)O)C1 [Example 265, (1S,3S)-3-((6-(5-((4-(cyclopropyl-methyl)-1H-1,2,3-triazol-1-yl)methyl)-1-methyl-1H-1,2,3-triazol-4-yl)-2-methylpyridin-3-yl)oxy)cyclohexane-1-carboxylic acid] |
| 7.05 | Cc1nc(-c2nnn(C)c2Cn2ncc(C3CC3)n2)ccc1O[C@H]1CCC[C@H](C(=O)O)C1 [Example 266, (1S,3S)-3-((6-(5-((4-cyclopropyl-2H-1,2,3-triazol-2-yl)methyl)-1-methyl-1H-1,2,3-triazol-4-yl)-2-methyl-pyridin-3-yl)oxy)cyclohexane-1-carboxylic acid] |
| 5.65 | Cc1nc(-c2nnn(C)c2Cn2cc(C3CC3)nn2)ccc1O[C@H]1CCC[C@H](C(=O)O)C1 [Example 267, (1S,3S)-3-((6-(5-((4-cyclopropyl-1H-1,2,3-triazol-1-yl)methyl)-1-methyl-1H-1,2,3-triazol-4-yl)-2-methylpyridin-3-yl)oxy)cyclohexane-1-carboxylic acid] |
| 6.52 | Cc1nc(-c2nnn(C)c2Cn2nncc2C2CC2)ccc1O[C@H]1CCC[C@H](C(=O)O)C1 [Example 268, (1S,3S)-3-((6-(5-((5-cyclopropyl-1H-1,2,3-triazol-1-yl)methyl)-1-methyl-1H-1,2,3-triazol-4-yl)-2-methyl-pyridin-3-yl)oxy)cyclohexane-1-carboxylic acid] |
| 7.12 | CCCc1cn(Cc2c(-c3ccc(O[C@H]4CCC[C@H](C(=O)O)C4)c(C)n3)nnn2C)nn1 [Example 269, (1 S,3S)-3-((2-methyl-6-(1-methyl-5-((4-propyl-1H-1,2,3-triazol-1-yl)methyl)-1H-1,2,3-triazol-4-yl)pyridin-3-yl)oxy)cyclohexane-1-carboxylic acid] |
| 7.21 | CCCc1cnn(Cc2c(-c3ccc(O[C@H]4CCC[C@H](C(=O)O)C4)c(C)n3)nnn2C)n1 [Example 270, (1S,3S)-3-((2-methyl-6-(1-methyl-5-((4-propyl-2H-1,2,3-triazol-2-yl)methyl)-1H-1,2,3-triazol-4-yl)pyridin-3-yl)oxy)cyclohexane-1-carboxylic acid] |
| 6.87 | C=C(C)c1cnn(Cc2c(-c3ccc(O[C@H]4CCC[C@H](C(=O)O)C4)c(C)n3)nnn2C)n1 [Example 271, (1S,3 S)-3-((2-methyl-6-(1-methyl-5-((4-(prop-1-en-2-yl)-2H-1,2,3-triazol-2-yl)methyl)-1H-1,2,3-triazol-4-yl)pyridin-3-yl)oxy)cyclohexane-1-carboxylic acid] |
| 7.46 | Cc1nc(-c2nnn(C)c2Cn2ncc(C(C)C)n2)ccc1O[C@H]1CCC[C@H](C(=O)O)C1 [Example 272, (1S,3S)-3-((6-(5-((4-isopropyl-2H-1,2,3-triazol-2-yl)methyl)-1-methyl-1H-1,2,3-triazol-4-yl)-2-methylpyridin-3-yl)oxy)cyclohexane-1-carboxylic acid] |
| 7.24 | Cc1nc(-c2nnn(C)c2Cn2ncc(-c3ccccc3)n2)ccc1O[C@H]1CCC[C@H](C(=O)O)C1 [Example 273, (1 S,3S)-3-((2-methyl-6-(1-methyl-5-((4-phenyl-2H-1,2,3-triazol-2-yl)methyl)-1H-1,2,3-triazol-4-yl)pyridin-3-yl)oxy)cyclohexane-1-carboxylic acid] |
| 6.00 | Cc1nc(-c2nnn(C)c2Cn2sc(C3CC3)nc2=N)ccc1O[C@H]1CCC[C@H](C(=O)O)C1 [Example 274, (1 S,3 S)-3-((6-(5-((5-cyclopropyl-3-imino-1,2,4-thiadiazol-2(3H)-yl)methyl)-1-methyl-1H-1,2,3-triazol-4-yl)-2-methylpyridin-3-yl)oxy)cyclohexane-1-carboxylic acid] |
| 7.74 | CCCCc1nc(Nc2c(-c3ccc(O[C@H]4CCC[C@H](C(=O)O)C4)c(C)n3)nnn2C)no1 [Example 275, (1 S,3 S)-3-((6-(5-((5-Butyl-1,2,4-oxadiazol-3-yl)amino)-1-methyl-1H-1,2,3-triazol-4-yl)-2-methylpyridin-3-yl)oxy)cyclohexane-1-carboxylic acid, 2 TFA salt] |
| 6.35 | Cc1nc(-c2nnn(C)c2Nc2nnc(CC3CC3)o2)ccc1O[C@H]1CCC[C@H](C(=O)O)C1 [Example 276, (1 S,3S)-3-((6-(5-((5-(Cyclopropylmethyl)-1,3,4-oxadiazol-2-yl)amino)-1-methyl-1H-1,2,3-triazol-4-yl)-2-methylpyridin-3-yl)oxy)cyclohexane-1-carboxylic acid, 2 TFA salt] |
| 7.48 | Cc1nc(-c2nnn(C)c2Nc2noc(CC3CC3)n2)ccc1O[C@H]1CCC[C@H](C(=O)O)C1 [Example 277, (1S,3S)-3-{[6-(5-{[5-(Cyclo-propylmethyl)-1,2,4-oxadiazol-3-yl]amino}-1-methyl-1H-1,2,3-triazol-4-yl)-2-methylpyridin-3-yl]oxy}cyclohexane-1-carboxylic acid, bis TFA salt] |
| 7.52 | Cc1nc(-c2nnn(C)c2CNc2noc(CCC3CCC3)n2)c(F)cc1O[C@H]1CCC[C@H](C(=O)O)C1 [Example 278, (1S,3S)-3-((6-(5-(((5-(2-cyclobutylethyl)-1,2,4-oxadiazol-3-yl)amino)methyl)-1-methyl-1H-1,2,3-triazol-4-yl)-5-fluoro-2-methylpyridin-3-yl)oxy)cyclohexane-1-carboxylic acid] |
| 7.29 | Cc1nc(-c2nnn(C)c2CNc2noc(CCC3CC3)n2)c(F)cc1O[C@H]1CCC[C@H](C(=O)O)C1 [Example 279, (1S,3S)-3-((6-(5-(((5-(2-cyclopropyl-ethyl)-1,2,4-oxadiazol-3-yl)amino)methyl)-1-methyl-1H-1,2,3-triazol-4-yl)-5-fluoro-2-methylpyridin-3-yl)oxy)cyclohexane-1-carboxylic acid] |
